Laboratory results published in patent publication US6699498B1, “Transdermal therapeutic systems having improved stability and their production” (LTS Lohmann Therapie-Systeme AG, priority 1999, dated 2004).

Tests used:
[1] = Peroxide number (PON) of raw materials; assay type: physicochemical; details: raw material following approximately 6 months' storage at room temperature
Source text: The peroxide content is commonly expressed by means of the so-called peroxide number PON, which indicates the amount of milliequivalents of active oxygen per kg of substance. There are various methods of determining the peroxide number. The most customary is to react a defined amount of substance in a chloroform/glacial acetic acid solution with an excess of iodide ions and then to back-titrate the resultant iodine using sodium thiosulfate. A less common method, which is restricted to aqueous solutions, is to react the substance with titanium(IV) ions and to measure the resultant peroxo complex by photometry. A semiquantitative test for peroxides which is particularly easy to implement is carried out using commercial […].
The table below lists the measured peroxide numbers of some exemplary substances used to produce reservoir and matrix systems, following approximately 6 months' storage at room temperature. The peroxide numbers were measured by the two first-mentioned methods.

[2] = Test reaction of active substance with t-butyl hydroperoxide under reflux; assay type: physicochemical; details: chloroform; for Identified degradation product in reaction with t-butyl hydroperoxide: reflux 6 hours
Source text: To determine the sensitivity of the active substance to oxidation reactions with hydroperoxides, an easily implemented test reaction has been developed. For this purpose, the active substance in chloroform or another appropriate solvent is reacted with t-butyl hydroperoxide under reflux. If oxidative degradation products of the active substance are found in this reaction mixture, they can be attributed to the reaction with hydroperoxide. Often, degradation of the active substance is also evident very simply from a discoloration of the test solution. The practical conclusion to be drawn from a positive outcome of the test reaction is that when formulating a transdermal system using this active substance the auxiliaries used should include only those which are substantially free from hydroperoxides.
80 ml of chloroform and 1 g of t-butyl hydroperoxide are added to 0.5 g of the active substance and this system is heated under reflux with stirring for 6 hours. The reaction mixture is subsequently assessed for its color and analyzed using an appropriate chromatographic method for degradation products formed.

Compound | PON (peroxide number) [1] | Identified degradation product in reaction with t-butyl hydroperoxide [2] | other results
C=C(C)[C@H]1CC=C(C)CC1 [Limonene] | 15 milliequivalents of active oxygen per kg of substance | – | –
CCOCCOCCO [Diethylene glycol monoethyl ether] | 120 milliequivalents of active oxygen per kg of substance | – | –
CCCN1C[C@H](CSC)C[C@@H]2c3cccc4[nH]cc(c34)C[C@H]21 [pergolide] | – | Oxidation of the sulfide sulfur to the sulfoxide | –
Cc1cc2c(OCC(CNC(C)(C)C)OC(=O)c3ccccc3)cccc2[nH]1 (stereo not drawn) [bopindolol] | – | – | Color of reaction mixture with t-butyl hydroperoxide ([2]; reflux): yellowish discoloration which then becomes strongly brown
CCCCCCCC/C=C\CCCCCCCCO [Oleyl alcohol] | 50 milliequivalents of active oxygen per kg of substance | – | –
CCCN(CCc1cccs1)[C@H]1CCc2c(O)cccc2C1 [N-0923 base] | – | 1,2-dihydronaphth-8-ol | –
